Measurements as given in US9241951B2, “Of gastrointestinal health, immunity and performance by dietary intervention” (BIOATLANTIS LTD, priority 2009, dated 2016).

Legend:
[1] = Piglet performance with lactose and SWE, Example 3; type: in vivo, pig
[2] = Coefficient of total tract apparent digestibility, Example 3; type: in vivo, pig; conditions: SWE − or +
[3] = test system: Escherichia coli; test: Faecal microbiology, Example 3; type: in vivo, pig; conditions: SWE − or +
Method: (§1) This experiment was carried out over two consecutive periods of 25 days. 240 piglets were selected after weaning at 24 days and assigned to one of four dietary treatments. Pigs in period 1 and 2 had initial live weights of 7.2 Kg and 7.8 Kg (±0.9 Kg), respectively. This experiment was designed as a 2×2 factorial. During the experiment (days 0-25) piglets were offered the following diets: (T1) 150 g/Kg lactose; (T2) 150 g/Kg lactose+SWE; (T3) 250 g/Kg lactose (T4) 250 g/Kg lactose+SWE. SWE was included at 2.8 g/Kg and derived from Laminaria digitata. It contained laminarin (112 g/Kg), fucoidan (89 g/Kg) and ash (799 g/Kg).
(§2) Pigs were housed in groups of 4 (n=15/treatment) and weighed at weaning (day 0), day 7, 14 and 25. Pigs were fed ad libitum. Fresh faecal samples were collected on days 10 to 15 for determination of nutrient digestibility and VFA analysis. Fresh faecal samples were collected on day 10 for enumeration of E. coli and Lactobacilli (O'Connell et al., 2005).
(§3) 1 g of faecal sample was serially diluted in maximum recovery diluent (MRD; Oxoid, Basingstoke, UK) and plated on selective agars. Lactobacillus spp. were isolated on de Man Rogosa Sharp agar (MRS, Oxoid). The API 50 CHL (BioMerieux, France) kit was used to confirm suspect Lactobacilli spp. E. coli species were isolated on MacConkey agar (Oxoid). Suspect colonies were confirmed with API 20E (BioMerieux, France).

[4] = test system: Lactobacilli; test: Faecal microbiology, Example 3; type: in vivo, pig; conditions: SWE − or +
Method: as §1, §2, §3

[5] = Pig performance post weaning with LAM and FUC, Example 4; type: in vivo; conditions: for ADG: days 14-21
Text: (§4) One hundred and ninety two piglets were weaned at twenty four days of age, with an initial live weight of 6.4±0.785 Kg and assigned to one of four dietary treatments or 21 days post weaning. The dietary treatments consisted of (T1) basal diet, (T2) basal diet with 300 ppm LAM, (T3) basal diet with 236 ppm FUC, (T4) Basal diet with 300 ppm LAM and 236 ppm FUC. Diets were formulated to have identical concentrations of digestible energy (DE) (16 MJ/Kg) and ileal digestible lysine (14 g/Kg). All amino acid requirements were met relative to lysine (Close, 1994). Chromium III oxide was added to the diets for determination of nutrient digestibility. The LAM and FUC were derived from Laminaria hyperborea.
(§5) Piglets were housed in groups of 4 and offered feed twice daily. Water was supplied ad-libitum. Any pig displaying symptoms of illness was treated appropriately and recorded. Pigs were weighed on day 0 (day of weaning), 7, 14 and 21. Feed intake was monitored weekly. Fresh faecal samples were taken on day 10 and were analysed for E. coli and Lactobacilli concentrations. Faeces samples were collected from each pen on day 12-17 and were retained for chemical analysis. Fresh faecal samples were removed on day 14 and were frozen and retained for volatile fatty acid analysis. Fresh faecal samples were taken on day 17 for pH determination.

[6] = test system: Lactobacilli; test: Faecal microbiology, Example 4; type: in vivo, pig
Text: as §4, §5
A sample was serially diluted (1:10) in 9.0 ml aliquots of maximum recovery diluent (MRD, Oxoid, Basingstoke, UK), and spread plated (0.1 ml aliquots) onto selective agars. Lactobacillus spp. were isolated on de Man, Rogosa, Sharp agar (MRS, Oxoid) with overnight incubation at 37° C. in 5% CO2. The API 50 CHL (BioMerieux, France) kit was used to confirm suspect Lactobacilli spp. E. coli species were isolated on MacConkey agar (Oxoid), following aerobic incubation at 37° C. for 18-24 hours. Suspect colonies were confirmed with API 20E (BioMerieux, France).

[7] = Day 0-7, diet with 150 g/Kg lactose, SWE 2.8 g/Kg where included
[8] = Day 0-7, diet with 250 g/Kg lactose, SWE 2.8 g/Kg where included
[9] = Day 0-25, diet with 150 g/Kg lactose, SWE 2.8 g/Kg where included
[10] = Day 0-25, diet with 250 g/Kg lactose, SWE 2.8 g/Kg where included
[11] = Day 7-14, diet with 150 g/Kg lactose, SWE 2.8 g/Kg where included
[12] = Day 7-14, diet with 250 g/Kg lactose, SWE 2.8 g/Kg where included
[13] = Day 14-25, diet with 150 g/Kg lactose, SWE 2.8 g/Kg where included
[14] = Day 14-25, diet with 250 g/Kg lactose, SWE 2.8 g/Kg where included

Compound: OC[C@H]1O[C@@H](O[C@H]2[C@H](O)[C@@H](O)C(O)O[C@@H]2CO)[C@H](O)[C@@H](O)[C@H]1O (stereo partly drawn) [Lactose, lactose]
- Average Daily Gain (ADG) ([1]; Day 0-7, diet with 150 g/Kg lactose, SWE 2.8 g/Kg (L. digitata) where included): 0.100 kg/day
- Average Daily Feed Intake (ADFI) [1, 7]: 0.242 kg/day
- Gain: Feed ratio [1, 7]: 0.413 Kg/Kg
- Average Daily Gain (ADG) ([1]; Day 0-7, diet with 250 g/Kg lactose, SWE 2.8 g/Kg (L. digitata) where included): 0.146 kg/day
- Average Daily Feed Intake (ADFI) [1, 8]: 0.239 kg/day
- Gain: Feed ratio [1, 8]: 0.589 Kg/Kg
- Average Daily Feed Intake (ADFI) [1, 9]: 0.446 kg/day
- Average Daily Gain (ADG) [1, 9]: 0.275 kg/day
- Gain: Feed ratio [1, 9]: 0.603 Kg/Kg
- Average Daily Feed Intake (ADFI) [1, 10]: 0.458 kg/day
- Average Daily Gain (ADG) [1, 10]: 0.287 kg/day
- Gain: Feed ratio [1, 10]: 0.619 Kg/Kg
- Average Daily Feed Intake (ADFI) [1, 11]: 0.415 kg/day
- Average Daily Gain (ADG) [1, 11]: 0.302 kg/day
- Gain: Feed ratio [1, 11]: 0.747 Kg/Kg
- Average Daily Feed Intake (ADFI) [1, 12]: 0.450 kg/day
- Average Daily Gain (ADG) [1, 12]: 0.325 kg/day
- Gain: Feed ratio [1, 12]: 0.729 Kg/Kg
- Average Daily Feed Intake (ADFI) [1, 13]: 0.682 kg/day
- Average Daily Gain (ADG) [1, 13]: 0.438 kg/day
- Gain: Feed ratio [1, 13]: 0.633 Kg/Kg
- Average Daily Feed Intake (ADFI) [1, 14]: 0.683 kg/day
- Average Daily Gain (ADG) [1, 14]: 0.388 kg/day
- Gain: Feed ratio [1, 14]: 0.569 Kg/Kg
- Digestibility Ash ([2]; diet Lactose 150 g/Kg): 53.30%
- Digestibility DM ([2]; diet Lactose 150 g/Kg): 87.75%
- Digestibility GE ([2]; diet Lactose 150 g/Kg): 85.93%
- Digestibility N ([2]; diet Lactose 150 g/Kg): 83.69%
- Digestibility NDF ([2]; diet Lactose 150 g/Kg): 37.55%
- Digestibility OM ([2]; diet Lactose 150 g/Kg): 89.16%
- Digestibility Ash ([2]; diet Lactose 250 g/Kg): 72.80%
- Digestibility DM ([2]; diet Lactose 250 g/Kg): 91.34%
- Digestibility GE ([2]; diet Lactose 250 g/Kg): 90.22%
- Digestibility N ([2]; diet Lactose 250 g/Kg): 86.86%
- Digestibility NDF ([2]; diet Lactose 250 g/Kg): 61.91%
- Digestibility OM ([2]; diet Lactose 250 g/Kg): 92.24%
- Bacterial populations Escherichia coli ([3]; diet Lactose 150 g/Kg): 6.30 Log10 CFU/g faeces
- Bacterial populations Escherichia coli ([3]; diet Lactose 250 g/Kg): 5.70 Log10 CFU/g faeces
- Bacterial populations Lactobacilli ([4]; diet Lactose 150 g/Kg): 8.46 Log10 CFU/g faeces
- Bacterial populations Lactobacilli ([4]; diet Lactose 250 g/Kg): 8.19 Log10 CFU/g faeces

Compound: fucoidan
- ADG ([5]; FUC added to a LAM diet): no effect
- ADG ([5]; FUC diet (236 ppm) compared to basal diet): significantly higher
- average daily feed intake ([5]; weaned pigs, 21 days, LAM 300 ppm, FUC 236 ppm): no effect
- faecal Lactobacilli numbers ([6]; FUC diet (236 ppm) v basal diet (8.93)): 9.22
- faecal lactobacilli populations ([6]; FUC included with LAM): no effect
